Earlier results in patent US20090291958A1, “Substituted PDE5 inhibitors” (Auspex Pharmaceuticals, Inc., priority 2006, published 2009).

Assays:
[1] = in vivo
[2] = in vivo; remark: listed apart in the source
[3] = test system: PDE6; settings: share of patients; attributed to PDE6 modulation
[4] = test system: PDE5 versus PDE6; settings: compared with sildenafil and vardenafil

SMILES: CN1CC(=O)N2[C@H](c3ccc4c(c3)OCO4)c3[nH]c4ccccc4c3C[C@@H]2C1=O [tadalafil, Tadalafil]
- half-life [1]: 17.5 h
- exercise tolerance [2]: improve exercise tolerance
- rate of myocardial infarction [2]: lower rate of myocardial infarction than placebo
- patients with side effects of chromatopsia, increased sensitivity to light, and blurred vision [3]: less than 0.1%
- selectivity for PDE5 versus PDE6 [4]: much more selective than sildenafil and vardenafil
